Measured values published in PMC10797628.
Where two headings read alike, the source gives them in different places. Blank lines part the entries; values can stand above or below the compound they belong to.

Tests used:
[1] = biological target: T1, human 5-HT1A receptor (Homo sapiens, UniProt P08908); assay: Radioligand binding (saturation and competition), WT 5-HT1A
T1 construct: host or cells: HEK293T
T1 sequence (P08908 1-422): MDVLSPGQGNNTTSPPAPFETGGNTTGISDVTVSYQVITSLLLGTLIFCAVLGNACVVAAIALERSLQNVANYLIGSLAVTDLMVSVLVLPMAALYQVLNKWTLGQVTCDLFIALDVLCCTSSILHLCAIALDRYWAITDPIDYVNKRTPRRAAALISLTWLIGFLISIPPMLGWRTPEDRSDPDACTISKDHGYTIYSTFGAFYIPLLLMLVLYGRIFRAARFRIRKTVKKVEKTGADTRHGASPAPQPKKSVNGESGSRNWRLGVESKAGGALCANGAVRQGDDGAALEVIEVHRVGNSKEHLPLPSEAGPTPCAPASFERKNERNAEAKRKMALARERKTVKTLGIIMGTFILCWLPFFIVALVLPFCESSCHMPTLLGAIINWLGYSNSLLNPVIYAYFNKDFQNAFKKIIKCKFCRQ

[2] = biological target: T2, human 5-HT1B receptor (Homo sapiens, UniProt P28222); assay: Radioligand binding (saturation and competition), WT 5-HT1B
T2 construct: host or cells: HEK293T
T2 sequence (P28222 whole entry): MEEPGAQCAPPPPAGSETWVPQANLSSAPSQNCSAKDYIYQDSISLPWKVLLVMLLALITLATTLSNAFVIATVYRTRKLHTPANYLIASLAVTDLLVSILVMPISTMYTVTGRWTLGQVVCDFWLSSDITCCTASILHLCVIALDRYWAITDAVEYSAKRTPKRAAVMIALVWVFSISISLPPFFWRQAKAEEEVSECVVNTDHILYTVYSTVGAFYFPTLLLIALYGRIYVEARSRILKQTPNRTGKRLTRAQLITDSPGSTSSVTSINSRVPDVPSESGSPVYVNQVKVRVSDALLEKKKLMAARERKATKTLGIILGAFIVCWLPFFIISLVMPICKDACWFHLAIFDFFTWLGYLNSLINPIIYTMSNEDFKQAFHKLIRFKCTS

[3] = biological target: T3, human 5-HT1D receptor (Homo sapiens, UniProt P28221); assay: Radioligand binding (saturation and competition), WT 5-HT1D
T3 construct: host or cells: HEK293T
T3 sequence (P28221 whole entry): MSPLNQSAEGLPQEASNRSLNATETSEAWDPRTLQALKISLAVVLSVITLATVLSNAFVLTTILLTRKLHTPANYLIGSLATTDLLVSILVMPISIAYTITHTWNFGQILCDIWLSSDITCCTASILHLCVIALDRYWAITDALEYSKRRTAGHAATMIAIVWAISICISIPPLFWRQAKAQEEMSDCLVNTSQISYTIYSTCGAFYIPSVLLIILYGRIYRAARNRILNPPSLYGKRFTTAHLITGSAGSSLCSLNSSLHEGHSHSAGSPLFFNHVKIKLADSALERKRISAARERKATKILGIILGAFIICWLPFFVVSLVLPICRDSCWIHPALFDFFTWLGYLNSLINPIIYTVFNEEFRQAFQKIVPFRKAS

[4] = biological target: T4, human 5-HT1F receptor (Homo sapiens, UniProt P30939); assay: Radioligand binding (saturation and competition), WT 5-HT1F
T4 construct: host or cells: HEK293T
T4 sequence (P30939 1-366): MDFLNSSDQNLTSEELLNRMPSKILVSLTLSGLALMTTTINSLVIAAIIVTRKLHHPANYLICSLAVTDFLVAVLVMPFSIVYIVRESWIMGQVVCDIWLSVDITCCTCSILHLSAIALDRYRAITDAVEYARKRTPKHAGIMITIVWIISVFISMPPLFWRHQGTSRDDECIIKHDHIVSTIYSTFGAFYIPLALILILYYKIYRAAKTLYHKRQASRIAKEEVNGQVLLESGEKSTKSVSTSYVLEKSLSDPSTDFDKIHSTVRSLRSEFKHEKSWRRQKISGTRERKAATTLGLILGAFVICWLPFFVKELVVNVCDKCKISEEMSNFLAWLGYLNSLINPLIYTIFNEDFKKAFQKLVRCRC

[5] = biological target: T1, human 5-HT1A receptor; assay: cAMP accumulation (LANCE Ultra TR-FRET) in HEK293T cells, WT 5-HT1A; format: cell-based; details: for Emax: HEK-293T; for EC50: cAMP accumulation, HEKt cells, mean ± SD
Protocol: (§1) Briefly, cells transfected with the desired receptor construct and compounds were incubated in the dark for 90 min at 37 °C. After incubation, cAMP detection reagents were added, and TR-FRET was used to quantify the cAMP produced.
(§2) The functional activity of compounds was determined by stimulating cells expressing the desired receptor with FSK and test compound in parallel with 12 known concentrations of cAMP. The known concentrations of cAMP were used to create a standard curve for each experiment that was used to interpolate the unknown values of cAMP in wells with test compounds. […] The EC50 and EMAX values were determined using the “dose response – log[agonist] vs response (three parameter)” nonlinear regression model in Prism and transformed to pEC50 values, reported as mean ± SD.
(§3) Summary of functional assay conditions at various 5-HT1 receptor point mutation constructs.

[6] = biological target: T2, human 5-HT1B receptor; assay: cAMP accumulation (LANCE Ultra TR-FRET) in HEK293T cells, WT 5-HT1B; format: cell-based; details: for Emax: HEK-293T; for EC50: cAMP accumulation, HEKt cells, mean ± SD
Protocol: as §1, §2, §3

[7] = biological target: T3, human 5-HT1D receptor; assay: cAMP accumulation (LANCE Ultra TR-FRET) in HEK293T cells, WT 5-HT1D; format: cell-based; details: for Emax: HEK-293T; for EC50: cAMP accumulation, HEKt cells, mean ± SD
Protocol: as §1, §2, §3

[8] = Affinity (pKi ± SD) 5-HT1B, WT receptor, [^3H]5-CT competition, mean ± SD
[9] = Affinity (pKi ± SD) 5-HT1D, WT receptor, [^3H]5-CT competition, mean ± SD
[10] = Affinity (pKi ± SD) 5-HT1A, WT receptor, [^3H]5-CT competition, mean ± SD
[11] = WT receptor, normalized to basal (0%) and 10 μM 5-CT (100%)
[12] = read-out: 5-HT1B EMAX (%), WT receptor, normalized to basal (0%) and 10 μM 5-CT (100%)
[13] = read-out: 5-HT1D EMAX (%), WT receptor, normalized to basal (0%) and 10 μM 5-CT (100%)
[14] = read-out: 5-HT1A EMAX (%), WT receptor, normalized to basal (0%) and 10 μM 5-CT (100%)
[15] = WT receptor, [^3H]5-HT competition, mean ± SD, read-out: Affinity (pKi ± SD) 5-HT1F (converted)
[16] = read-out: Affinity (pKi ± SD) 5-HT1D (converted)
[17] = WT receptor, read-out: 5-HT1D pEC50 (converted)
[18] = WT receptor, read-out: 5-HT1A pEC50 (converted)
[19] = read-out: Affinity (pKi ± SD) 5-HT1B (converted)
[20] = WT receptor, read-out: 5-HT1B pEC50 (converted)
[21] = read-out: Affinity (pKi ± SD) 5-HT1A (converted)

Compound: CCCN(CCC)C1CCc2cccc(O)c2C1 (stereo not drawn) [8-OH-DPAT, 8-hydroxy-N,N-dipropyl-1,2,3,4-tetrahydronaphthalen-2-amine, reference compound]
- higher affinity at the 5-HT1A receptor over 5-HT1B and 5-HT1D receptors ([1]; affinity ratio): 10–20 fold

Compound: CN(C)[C@@H]1CCc2c(cccc2-c2ccccc2)C1 [(R)-5-PAT]
- Ki [2, 8]: 1320 nM
- Ki [3, 9]: 282 nM
- Ki [4]: > 10000 nM
- Ki [1, 10]: 1050 nM

Compound: CCCN(CCC)[C@@H]1CCc2cccc(O)c2C1 [(R)-8-OH-DPAT, 8-hydroxy-N,N-dipropyl-1,2,3,4-tetrahydronaphthalen-2-amine, reference compound]
- 5-HT1A EMAX (%) [5, 11]: 95 ± 4%
- 5-HT1B EMAX (%) [6, 11]: 87 ± 4%
- 5-HT1D EMAX (%) [7, 11]: 96 ± 2%

Compound: CN(C)[C@@H]1CCc2c(cccc2-c2ccccc2Cl)C1 [(R)-CPT]
- Ki [2, 8]: 72.4 nM
- Ki [3, 9]: 417 nM
- Ki [4]: > 10000 nM
- Ki [1, 10]: 2140 nM

Compound: CCCN(CCC)[C@@H]1CCc2c(cccc2-c2ccccc2Cl)C1 [(R)-DCPT]
- Ki [2, 8]: 55 nM
- Ki [3, 9]: 117 nM
- Ki [4]: > 10000 nM
- Ki [1, 10]: 117 nM

Compound: CCCN(CCC)[C@@H]1CCc2c(cccc2-c2ccccc2F)C1 [(R)-DFPT]
- Ki [2, 8]: 64.6 nM
- Ki [3, 9]: 107 nM
- Ki [4]: > 10000 nM
- Ki [1, 10]: 117 nM

Compound: CN(C)[C@@H]1CCc2c(cccc2-c2ccco2)C1 [(R)-FAT]
- Ki [2, 8]: 550 nM
- Ki [3, 9]: 214 nM
- Ki [4]: > 10000 nM
- Ki [1, 10]: 537 nM

Compound: CN(C)[C@@H]1CCc2c(cccc2-c2ccccc2F)C1 [(R)-FPT]
- Ki [2, 8]: 240 nM
- Ki [3, 9]: 912 nM
- Ki [4]: > 10000 nM

Compound: CCCN(CCC)[C@H]1CCc2cccc(O)c2C1 [(S)-8-OH-DPAT, 8-hydroxy-N,N-dipropyl-1,2,3,4-tetrahydronaphthalen-2-amine, reference compound]
- 5-HT1A EMAX (%) [5, 11]: 70 ± 3%
- Emax [6, 12]: 85 ± 3%
- Emax [7, 13]: 94 ± 2%
- Ki [4]: > 10000 nM

Compound: O=C1CCc2ccc(OCCCCN3CCN(c4cccc(Cl)c4Cl)CC3)cc2N1 [Aripiprazole, aripiprazole, reference compound]
- Emax [5, 14]: 96 ± 2%
- Emax [6, 12]: 99 ± 3%
- Emax [7, 13]: 96 ± 1%
- Ki [4, 15]: 7240 nM

- Emax ([5]; read-out: 5-HT1A EMAX (%)): 75 ± 1%
- Ki [3, 16]: 617 nM
- Emax ([6]; read-out: 5-HT1B EMAX (%)): 45 ± 3%
- Emax ([7]; read-out: 5-HT1D EMAX (%)): 50 ± 3%
- EC50 [7, 17]: > 10000 nM
- Ki [4, 15]: > 10000 nM
Compound: O=C1CC2(CCCC2)CC(=O)N1CCCCN1CCN(c2ncccn2)CC1 [Buspirone, buspirone, reference compound]

- Emax ([5]; read-out: 5-HT1A EMAX (%)): 93 ± 4%
- EC50 [5, 18]: 813 nM
- Ki [2, 19]: 69.2 nM
- Ki [3, 16]: 4.79 nM
- Emax ([6]; read-out: 5-HT1B EMAX (%)): 93 ± 2%
- EC50 [6, 20]: 64.6 nM
- Emax ([7]; read-out: 5-HT1D EMAX (%)): 99 ± 2%
- EC50 [7, 17]: 4.37 nM
- Ki [1, 21]: 309 nM
Compound: CN(C)[C@H]1CCc2c(cccc2-c2cccc3c2oc2ccccc23)C1 [DBZ, (S)-5-(Dibenzo[b,d]furan-4-yl)-N,N-dimethyl-1,2,3,4-tetrahydronaphthalen-2-amine]

Compound: CN(C)[C@H]1CCc2c(cccc2-c2c(F)cccc2F)C1 [Di-FPT, (S)-5-(2,6-Difluorophenyl)-N,N-dimethyl-1,2,3,4-tetrahydronaphthalen-2-amine]
- EC50 ([5]; 5-HT1A pEC50, WT receptor): 1.74 nM
- Emax [5, 14]: 98 ± 2%
- Ki [2, 8]: 1.62 nM
- Ki [3, 9]: 1.41 nM
- EC50 ([6]; 5-HT1B pEC50, WT receptor): 2.09 nM
- Emax [6, 12]: 100 ± 1%
- EC50 ([7]; 5-HT1D pEC50, WT receptor): 1.66 nM
- Emax [7, 13]: 100 ± 1%
- Ki [1, 10]: 1.7 nM

- Emax ([5]; read-out: 5-HT1A EMAX (%)): 95 ± 2%
- EC50 [5, 18]: 1.2 nM
- selectivity over 5-HT1B and 5-HT1D receptors ([5]; full efficacy 5-HT1A agonist): 100 fold
- Ki [2, 19]: 107 nM
- Ki [3, 16]: 87.1 nM
- Emax ([6]; read-out: 5-HT1B EMAX (%)): 99 ± 3%
- EC50 [6, 20]: 126 nM
- Emax ([7]; read-out: 5-HT1D EMAX (%)): 98 ± 2%
- EC50 [7, 17]: 148 nM
- Ki [1, 21]: 0.977 nM
Compound: Fc1ccccc1-c1cccc2c1CC[C@H](N1CCNCC1)C2 [FPIP, (S)-1-(5-(2-Fluorophenyl)-1,2,3,4-tetrahydronaphthalen-2-yl)piperazine]

- Ki [3, 16]: 2040 nM
- Ki [4, 15]: 8.32 nM
- Ki [1, 21]: 501 nM
Compound: CN1CCC(c2c[nH]c3ccc(NC(=O)c4ccc(F)cc4)cc23)CC1 [LY334370, reference compound]

Compound: Cc1ccc(CNCC2(F)CCN(C(=O)c3ccc(F)c(Cl)c3)CC2)nc1 [NLX-112, reference compound]
- Emax ([5]; read-out: 5-HT1A EMAX (%)): 100 ± 3%
- Ki [2, 8]: > 10000 nM
- Ki [3, 9]: > 10000 nM
- EC50 ([6]; read-out: 5-HT1B pEC50 (converted), WT receptor): > 10000 nM
- EC50 ([7]; read-out: 5-HT1D pEC50 (converted), WT receptor): > 10000 nM
- Ki [4]: > 10000 nM
